Calls of active or inactive are those of the source. The rule behind the calls is not given here.
Experiments:
[1] = target: T1, Acyl-CoA desaturase 1 (Mus musculus, UniProt P13516); assay: Inhibition of mouse SCD1
T1 sequence (P13516 whole entry): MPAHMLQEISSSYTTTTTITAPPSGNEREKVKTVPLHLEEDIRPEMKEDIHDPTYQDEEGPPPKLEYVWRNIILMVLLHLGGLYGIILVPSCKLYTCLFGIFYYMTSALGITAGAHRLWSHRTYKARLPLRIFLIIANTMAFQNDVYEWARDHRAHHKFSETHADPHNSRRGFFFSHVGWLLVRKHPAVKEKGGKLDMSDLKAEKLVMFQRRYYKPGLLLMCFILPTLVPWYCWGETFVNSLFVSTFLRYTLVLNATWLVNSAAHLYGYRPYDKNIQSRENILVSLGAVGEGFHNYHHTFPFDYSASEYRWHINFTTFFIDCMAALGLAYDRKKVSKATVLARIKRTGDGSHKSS

[2] = Inhibition of human recombinant SCD1 expressed in baculovirus/insect cell system
[3] = test system: Mus musculus; assay: Reduction in desaturation index in liver of ob/ob mouse assessed as ratio of C16:0/C16:1n7 at 30 mg/kg bid; type: functional, organism-based; parameters: dose 30 mg/kg
[4] = test system: Mus musculus; assay: Reduction in desaturation index in plasma of ob/ob mouse assessed as ratio of C16:0/C16:1n7 at 30 mg/kg bid; type: functional, organism-based; parameters: dose 30 mg/kg
[5] = test system: Mus musculus; assay: Reduction in desaturation index in plasma of ob/ob mouse assessed as ratio of C18:0/C18:1n9 at 30 mg/kg bid; type: functional, organism-based; parameters: dose 30 mg/kg
[6] = test system: Mus musculus; assay: Reduction in desaturation index in liver of ob/ob mouse assessed as ratio of C18:0/C18:1n9 at 30 mg/kg bid; type: functional, organism-based; parameters: dose 30 mg/kg
[7] = Inhibition of cytochrome b5 reductase at >10 uM
[8] = Volume of distribution at steady state in mouse; type: ADME, organism-based; details: in vivo, read-out: Vdss
[9] = target: Cytochrome b5 (Homo sapiens) (UniProt P00167); assay: Inhibition of cytochrome b5 at >10 uM
[10] = Clearance in mouse plasma; type: ADME, organism-based
[11] = organism: Mus musculus; assay: Reduction in triglyceride desaturation index in ob/ob mouse; type: functional, organism-based
[12] = test system: Mus musculus; assay: Reduction in desaturation index in liver of ob/ob mouse assessed as ratio of C16:0/C16:1n7 at 10 mg/kg bid; type: functional, organism-based; parameters: dose 10 mg/kg
[13] = test system: Mus musculus; assay: Reduction in desaturation index in liver of ob/ob mouse assessed as ratio of C18:0/C18:1n9 at 10 mg/kg bid; type: functional, organism-based; parameters: dose 10 mg/kg
[14] = test system: Mus musculus; assay: Reduction in desaturation index in plasma of ob/ob mouse assessed as ratio of C16:0/C16:1n7 at 10 mg/kg bid; type: functional, organism-based; parameters: dose 10 mg/kg
[15] = test system: Mus musculus; assay: Reduction in desaturation index in plasma of ob/ob mouse assessed as ratio of C18:0/C18:1n9 at 10 mg/kg bid; type: functional, organism-based; parameters: dose 10 mg/kg
[16] = Oral bioavailability in mouse; type: ADME, organism-based; details: in vivo

Chain of Cytochrome b5 (Homo sapiens) (P00167 whole entry): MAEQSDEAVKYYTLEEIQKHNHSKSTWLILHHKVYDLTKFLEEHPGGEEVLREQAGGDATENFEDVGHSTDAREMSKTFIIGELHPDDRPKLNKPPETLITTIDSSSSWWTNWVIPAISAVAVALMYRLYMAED

IC50 [1] [nM] | SMILES | IC50 [2] [nM] | also measured
10 | O=C(Nc1cccc(-c2ncc[nH]2)c1)N1CCC(Oc2ccccc2Cl)CC1 | 360 | –
590 | O=C(Nc1ccccc1)N1CCC(Oc2ccccc2Cl)CC1 | 7500 | –
98 | CNC(=O)c1cccc(NC(=O)N2CCC(Oc3ccccc3F)CC2)c1 | 680 | Activity [3]: Active; Activity [4]: Active; Activity [5]: Active; Activity [6]: Active
6 | CNC(=O)c1cccc(NC(=O)N2CCC(Oc3ccc(F)cc3Cl)CC2)c1 | 58 | –
8 | Cc1noc(-c2cccc(NC(=O)N3CCC(Oc4ccccc4Cl)CC3)c2)n1 | 110 | –
10 | NC(=O)c1cccc(NC(=O)N2CCC(Oc3ccccc3Cl)CC2)c1 | 59 | –
< 4 | CNC(=O)c1cccc(NC(=O)N2CCC(Oc3ccccc3Br)CC2)c1 | 30 | –
700 | CNC(=O)c1cccc(NC(=O)N2CCN(C(=O)c3ccccc3C(F)(F)F)CC2)c1 | – | –
81 | CNC(=O)c1cccc(NC(=O)N2CCC(Oc3ccccc3OC)CC2)c1 | 1900 | –
> 10000 | CC(C)(C)NC(=O)c1cccc(NC(=O)N2CCC(Oc3ccccc3Cl)CC2)c1 | > 10000 | –
8 | CCNC(=O)c1cccc(NC(=O)N2CCC(Oc3ccccc3Cl)CC2)c1 | 150 | –
< 4 | CNC(=O)c1cccc(NC(=O)N2CCC(Oc3ccccc3Cl)CC2)c1 | 37 | Activity [7]: inactive; Vd [8]: 0.4 L/kg; Activity [9]: inactive; clearance [10]: 6.67 mL/min/kg; Activity [11]: Dose-dependent effect; Activity [12]: Active; Activity [13]: Active; Activity [14]: Active; Activity [15]: Active; bioavailability [16]: 92%
370 | CNC(=O)c1cccc(NC(=O)N2CCC(Oc3ccccc3)CC2)c1 | 4000 | –
810 | CC(C)NC(=O)c1cccc(NC(=O)N2CCC(Oc3ccccc3Cl)CC2)c1 | 7100 | –
> 10000 | CNC(=O)c1ccc(NC(=O)N2CCN(C(=O)c3ccccc3C(F)(F)F)CC2)cc1 | – | –
20 | CNC(=O)c1cccc(NC(=O)N2CCC(Oc3cccc(Cl)c3)CC2)c1 | 270 | –
330 | CNC(=O)c1cccc(NC(=O)N2CCC(Oc3c(F)cccc3Cl)CC2)c1 | 9700 | –
17 | CNC(=O)c1cccc(NC(=O)N2CCC(Oc3ccccc3C)CC2)c1 | 120 | –
< 4 | CNC(=O)c1cccc(NC(=O)N2CCC(Oc3cc(F)ccc3Cl)CC2)c1 | 18 | –

— ChEMBL document CHEMBL1155886, “Discovery of piperidine-aryl urea-based stearoyl-CoA desaturase 1 inhibitors” (Bioorg Med Chem Lett, 2008)
